Reference: PubChem BioAssay AID1996
≈ marks a conversion by molar mass, not a printed value.

settings: buffer; pH 7.4; 200.0 µM

SMILES	solubility kinetic [µg/mL]
O=C(c1ccc2nc[nH]c2c1)N1CCN(c2cccc(Cl)c2)CC1	42.7 (≈ 125 µM)
CCOc1ccc(NCc2cc3cc(OC)ccc3[nH]c2=O)cc1	2.1 (≈ 6.47 µM)
CS(=O)(=O)N1c2cccc3cccc(c23)S1(=O)=O	7.7 (≈ 27.2 µM)
Cc1ccc2[nH]c(C(=O)N3CCN(c4cccc(Cl)c4)CC3)cc2c1	< 0.3
O=C1NC(=S)N/C1=C\c1cccnc1	> 30.8
CC(=O)Nc1ccc(SCC(=O)Nc2ccc(Cl)cn2)cc1	9.6 (≈ 28.6 µM)
COc1ccc(Cl)cc1N(CC(=O)N1CCCC1)S(C)(=O)=O	51.5 (≈ 148 µM)
Cc1ccc(CNC(=O)COC(=O)CN2C(=O)C3CC=CCC3C2=O)cc1 (centres undefined)	> 55.6
O=C(Nc1ccccn1)c1ccc2ccccc2c1O	31.4 (≈ 119 µM)
COc1ccc(/C=C/C(=O)NCCCN2CCOCC2)cc1	43.8 (≈ 144 µM)
CC1(C)NC(=O)N(Cc2cc(=O)n3ccsc3n2)C1=O	> 43.8
Cc1cccc(OCCn2ccnc2)c1C	22.7 (≈ 105 µM)
COc1ccc(C2(C#N)CCC(=O)N2c2ccccc2)cc1 (centres undefined)	40.9 (≈ 140 µM)
Cc1c(NS(=O)(=O)c2cc(C(=O)N3CCCC(C)C3)ccc2Cl)c(=O)n(-c2ccccc2)n1C (centres undefined)	> 75.5
COc1cc(OC)cc(C(=O)Nc2cccc3cccnc23)c1	< 0.3
c1ccc2c3c([nH]c2c1)CNCC3	> 25.8
CC(C)(C)c1ccc(N2C(=O)CC(C/C=C/c3ccccc3)C2=O)cc1 (centres undefined)	< 0.7
CC(=O)Nc1cc2c3c(c1)CC(=O)N3CCC2	> 34.5
CCn1c(C)nc2cc(C#N)ccc21	> 27.8
CCOc1ccccc1C(=O)Nc1ccc(NC(=O)c2ccccc2)cc1	1.7 (≈ 4.72 µM)
COC(=O)[C@@H](NC(=O)/C=C/c1ccc(OC)cc1)C(C)C	> 43.7
CCOc1ccc(NC(=O)c2ccc3[nH]c(=O)c(=O)[nH]c3c2)cc1	4.8 (≈ 14.8 µM)
CCOc1ccc(N2CC(C(=O)N3CCCC3)CC2=O)cc1 (centres undefined)	> 45.4
CCc1ccc(/C=C\C(=O)N2CCCC2)cc1	28.3 (≈ 123 µM)

SMILES	solubility kinetic [µg/mL]
O=C(Cn1cnc2ccccc21)OCC(=O)N1CCCCC1	> 45.2
CC(C)CC(=O)Nc1ccc(S(=O)(=O)N2CCCC2)cc1	> 46.6
COc1cccc(N(CC(=O)N2CCCC2)S(C)(=O)=O)c1	> 46.9
CCN(CC)S(=O)(=O)c1ccc(N2CCOCC2)c(NC(=O)c2cc(Cl)c3c(c2)OCO3)c1	5.2 (≈ 10.5 µM)
Cc1cccc(NC(=O)CCN2C(=O)c3ccccc3C2=O)c1	> 46.3
O=C(NCc1ccccn1)C1CC(c2ccccc2Cl)=NO1 (centres undefined)	> 47.4
CN(C(=O)CCN1C(=O)c2ccccc2C1=O)c1ccccc1	36.5 (≈ 118 µM)
C=CCn1cccc(C(=O)Nc2ccc(C)c(Cl)c2)c1=O	< 0.3
O=C(Nc1cccnc1)c1cc(-c2ccc(Cl)cc2)on1	0.3 (≈ 1 µM)
CC1CC(=O)Nc2ccccc2N1C(=O)Nc1ccc(F)cc1 (centres undefined)	> 47
CCOC(=O)c1c(NC(C)=O)sc(C(=O)NC2CCCC2)c1C	1 (≈ 2.95 µM)
COc1ccc(CN(C)CC(=O)NC(C)c2ccccc2)c(OC)c1 (centres undefined)	51.2 (≈ 150 µM)
O=C(C(=O)N1CCN(c2ccc(F)cc2)CC1)c1c[nH]c2ccccc12	6.9 (≈ 19.6 µM)
CCC(Oc1ccc(F)cc1)C(=O)N1CCCCCCC1 (centres undefined)	34.8 (≈ 119 µM)
Cc1ccc(C(=O)Cn2c(C(=O)O)cc3ccccc32)cc1	> 44
CCCC1C2C(=O)N(c3cccc(C)c3)C(=O)C2ON1c1ccccc1 (centres undefined)	51.1 (≈ 146 µM)
O=C(Nc1ccncc1)c1c(F)c(F)c(F)c(F)c1F	41.6 (≈ 144 µM)
COCCNC(=O)C(NC(=O)C1CCC(C)CC1)C(C)C (centres undefined)	> 44.8
Cc1ccc(NC(=S)Nc2ccc(OC(F)F)c(Cl)c2)cc1F	3.5 (≈ 9.7 µM)
CC(C)NC(=O)C(=O)NCc1ccccn1	> 33.2
CC(C)(C)c1ccc(/C=C/C(=O)NCCCn2ccnc2)cc1	46.1 (≈ 148 µM)
O=C(CSCc1ccc(Br)cc1)NC1CC1	38.7 (≈ 129 µM)
CCCCC(C(=O)O)C(C)CC(=O)Nc1nccs1 (centres undefined)	> 42.7
CC1CN(c2ccc(Cl)cc2)c2nc3c(c(=O)[nH]c(=O)n3C)n2C1 (centres undefined)	1.2 (≈ 3.47 µM)

SMILES	solubility kinetic [µg/mL]
O=c1c2ccccc2nc(-c2ccccc2F)n1-c1ccccc1	45.5 (≈ 144 µM)
O=C(COc1ncnc2ccccc12)N1CCN(c2ccccc2)CC1	> 52.3
Cc1cc(C)cc(NC(=O)COC(=O)CC2CCCC2)c1	21.1 (≈ 72.9 µM)
CN(C)c1cc[n+](CC(=O)Nc2cccc([N+](=O)[O-])c2)cc1.[Cl-]	> 50.5
CCN(CC)c1c([N+](=O)[O-])c(=O)oc2ccccc12	> 39.3
Cc1ccc(NC(=O)CCS(=O)(=O)c2cccc3nonc23)cc1	18.1 (≈ 52.4 µM)
COc1ccc(C(=O)/C=C2\Sc3ccccc3N2C)cc1	0.7 (≈ 2.35 µM)
Cc1[nH]c2ccccc2c1C(=O)C(=O)NCCc1c[nH]c2ccccc12	2.6 (≈ 7.53 µM)
O=C1NC2(CCCCCC2)C(=O)N1Cc1cccc(Cl)c1	15.8 (≈ 51.5 µM)
NS(=O)(=O)c1cccc(NC(=O)COC(=O)CSCc2ccccc2)c1	> 59.2
O=[N+]([O-])c1ccccc1S(=O)(=O)Nc1ccc2c(c1)OCCO2	> 50.4
Cc1cccc(Nc2nc(-c3ccc(O)c(O)c3)cs2)n1	4.5 (≈ 15 µM)
CC(=O)OC1(c2ccccc2)CCN(C)CC1(C)C.Cl (centres undefined)	44.2
O=C(COC(=O)c1ccc[nH]c1=O)NC1CCCCCCC1	41.5 (≈ 135 µM)
Cc1csc(Nc2ccccc2)[n+]1C.[Br-]	30.2
Cc1cccc(C)c1OCC(=O)Nc1ccc(N2CCOCC2)cc1	6 (≈ 17.6 µM)
Cc1cccc(N=C2NC(=O)/C(=C/c3cccn3C)S2)c1C	8.2 (≈ 26.3 µM)
C=CCNC(=O)C(=O)Nc1cc2c3c(c1)CCC(=O)N3CCC2	> 47
CC(C)(C)c1ccccc1NC(=O)NC1CCN(Cc2c(F)cccc2Cl)CC1	0.5 (≈ 1.2 µM)
O=C1NN(c2ccc(F)cc2)C(=O)/C1=C/c1cccs1	> 43.2
Cc1cc(NC(=O)Nc2ccc(Cl)c(Cl)c2)no1	< 0.2
COC(=O)c1sccc1NC(=O)COc1ccc(F)cc1Cl	< 0.7
Cc1cccc(N2CCN(Cc3ccc4c(c3)OCO4)CC2)c1C	4 (≈ 12.3 µM)
COc1ccc(C(C#N)c2nc3ccccc3nc2Cl)cc1 (centres undefined)	< 0.2

SMILES	solubility kinetic [µg/mL]
CCC(C)C(NC(=O)c1ccccc1NC(=O)c1ccccc1)C(=O)O (centres undefined)	50.7 (≈ 143 µM)
O=C(Nc1ccsc1C(=O)N1CCCC1)c1ccccc1	< 0.3
CCC1OC(c2ccc([N+](=O)[O-])cc2)=Nc2ccccc21 (centres undefined)	3.1 (≈ 11 µM)
CN1CCC(C)(O)C2CCCCC21 (centres undefined)	> 27.5
CCOc1ccc(C(=S)N2CCCC2)cc1OCC	41.8 (≈ 150 µM)
Cc1[nH]c2ccccc2c1C(C[N+](=O)[O-])c1ccco1 (centres undefined)	37.9 (≈ 140 µM)
CC(C)Oc1cccc(C(=O)C2CCCN(C3CCOCC3)C2)c1 (centres undefined)	31 (≈ 93.5 µM)
COC(=O)c1sc(NC(=O)/C=C/c2ccccc2Cl)nc1C	1.5 (≈ 4.45 µM)
Cc1ccc(N=C2NC(=O)/C(=C/c3cccnc3)S2)c(C)c1	4.8 (≈ 15.5 µM)
CCc1ccc(C(C)NC(=S)NC2CCCCC2)cc1 (centres undefined)	11.4 (≈ 39.2 µM)
Cc1[nH]c2ccc(Br)cc2c(=S)c1C/C=C/Cl	5.3 (≈ 16.1 µM)
CCOC(=O)C(C)Oc1c(C(=O)OC)sc2ncccc12 (centres undefined)	38.2 (≈ 123 µM)
COc1cc([N+](=O)[O-])ccc1NC(=O)/C=C/C(=O)O	> 39.9
COc1ccc2oc(=Nc3cc(F)ccc3F)c(C(N)=O)cc2c1	< 0.4
COc1ccc(Cc2c(O)nc(SCC(=O)N3CCOCC3)[nH]c2=O)cc1	> 58.7
Cc1ccc(NC(=O)N2CCCCCC2)cc1C	> 37
COc1ccc(Br)cc1S(=O)(=O)NCCc1cccs1	34.4 (≈ 91.4 µM)
Cc1ccc(OCc2ccc(C(=O)NN)o2)c([N+](=O)[O-])c1	> 43.7
C/C(N)=C(/C#N)C(=O)COC(=O)c1ccccc1Cc1ccccc1	22.3 (≈ 66.7 µM)
O=C(CN1C(=O)c2ccccc2S1(=O)=O)NC1CCCCC1	> 48.4
CC(=O)NCCCc1nc2ccccc2n1Cc1ccccc1F	48.6 (≈ 149 µM)
S=C(NC1CC1)NC1CCCc2ccccc21 (centres undefined)	> 37
C[C@@H]1CN(Cc2nc(-c3ccc(Cl)cc3)no2)C[C@H](C)O1	44 (≈ 143 µM)
Cc1ccc(S(=O)(=O)NCc2c(-c3ccccc3)noc2C)cc1	40.9 (≈ 119 µM)

SMILES	solubility kinetic [µg/mL]
CCCCSc1nc2sc3c(c2c(=O)[nH]1)CC(C)(CC)OC3 (centres undefined)	0.5 (≈ 1.48 µM)
Cc1nc2ccc(NC(=O)c3cnc(Cl)c(Cl)c3)cc2s1	0.3 (≈ 0.887 µM)
COc1cc(NC(=O)c2ccc(Cl)cc2)c2ncccc2c1	< 0.3
CCCCOc1ccc(CN2CCSCC2)cc1	14.1 (≈ 53.1 µM)
Cc1ccc(NCc2nc3ccccc3n2C)cc1C	22.1 (≈ 83.3 µM)
CC(C)(C)SCCNC(=O)CN1C(=O)c2cccc3cccc1c23	2.8 (≈ 8.18 µM)
CCOC(=O)CNC(=O)C12CC3CC(CC(C3)C1)C2	37.8 (≈ 142 µM)
CC(C)NC(=O)COc1ccccc1C#N	> 32.7
COCc1cc(OC(=O)N(C)C)nc(-c2ccccc2)n1	> 43.1
O=C(O)CN=CC1=C(O)CC(c2ccccc2)CC1=O (centres undefined)	39.9 (≈ 146 µM)
O=C(CN1C(=O)c2ccccc2S1(=O)=O)Nc1cccc(S(=O)(=O)N2CCCCC2)c1	34.4 (≈ 74.2 µM)
NC(=O)c1ccc(NC(=O)COC(=O)c2ccc3ccccc3n2)cc1	18.8 (≈ 53.8 µM)
Cc1ccc(NC(=O)CN(C)C(=O)Nc2ccc(C)cc2)cc1	4.9 (≈ 15.7 µM)
C/C(=N\NC(=O)CCCNc1cccc(C)c1)c1ccncc1	> 46.6
CCc1nc2cc(Cl)c(Cl)cc2nc1CC	< 0.3
CCCCc1nc2cc(C(=O)N(C)C3CCOCC3)ccc2o1	> 47.5
Cn1cccc1C(=O)OCC(=O)c1c[nH]c2ccccc12	9.9 (≈ 35.1 µM)
CCOc1ccc(NC(=O)CNC(=O)Cc2ccccc2)cc1	4.4 (≈ 14.1 µM)
CCN1C(=O)c2ccccc2Sc2ccc(C(=O)O)cc21	> 44.9
CCOc1ccc(NC(=O)C2CCCN(S(C)(=O)=O)C2)cc1 (centres undefined)	4.1 (≈ 12.6 µM)
COc1ccc(C(=O)CSc2[nH]c(=O)cc(C(F)(F)F)c2C#N)cc1	> 55.2
COc1cc(OC)cc(C(=O)Nc2ccc(C(=O)Nc3ccccc3OC)cc2)c1	6.4 (≈ 15.7 µM)
COc1ccccc1-c1nc2cc(Cl)ccc2c(=O)n1O	> 45.4
